Here are results for 13 compounds from patent US11274082B2, “Tead inhibitors and uses thereof” (Ikena Oncology, Inc., priority 2019, dated 2022).

For one test, the system named is TEAD. As to the kind of experiment: TEAD reporter assay (Hippo Pathway TEAD Reporter - MCF7 cell line, luciferase). The settings on record: Homo sapiens; TEAD Reporter - MCF7 cells; read-out: TEAD Reporter Assay EC50. Type of test: cell-based. The source says:
TEAD inhibition can be assayed using Hippo Pathway TEAD Reporter—MCF7 Cell Line (BPS Bioscience, Catalog #: 60618).
The TEAD Reporter—MCF7 cell line contains the firefly luciferase gene under the control of TEAD responsive elements stably integrated into the human breast cancer cell line, MCF7. Inside the cells, basal unphosphorylated YAP/TAZ remains in the nucleus and induces the constitutive expression of luciferase reporter. The cell line is validated for the inhibition of the expression of luciferase reporter by the activators of the Hippo pathway.
• 1) Harvest TEAD Reporter—MCF7 cells from culture in growth medium and seed cells at a density of 35,000 cells per well into white clear-bottom 96-well microplate in 45 μl of assay medium. • 2) Incubate cells at 37° C. in a CO2 incubator for overnight. • 3) Dilute the activators (H2O2 or okadaic acid) stock in assay medium. Add 5 μl of diluted activators to the wells. The final concentration of DMSO in assay medium is 0.1%. • 4) Add 5 μl of assay medium with same concentration of DMSO without activator to control wells. • 5) Add 50 μl of assay medium with DMSO to cell-free control wells (for determining background luminescence). • 6) Set up each treatment in at least triplicate. • 7) Incubate cells at 37° C. in a CO2 incubator for 5-6 hours. • 8) Perform luciferase assay using the ONE-Step™ Luciferase Assay System following the protocol provided: Add 100 μl of ONE-Step™ Luciferase reagent per well and rock at room temperature for ˜15 minutes. Measure luminescence using a luminometer. • 9) Data Analysis: Obtain the background-subtracted luminescence by subtracting the average background luminescence (cell-free control wells) from the luminescence reading of all wells.
(§1) Certain compounds were tested in TEAD reporter assay, and in H226 and H28. A: EC50<0.1 uM; B: 0.1 uM≤EC50≤0.5 uM; C: EC50>0.5 uM.

The test system of the next test is H226. Description: Anti-proliferation assay in H226 cells. Type of test: cell-based. The settings on record: Homo sapiens, NCI-H226; H226 cells; read-out: H226 EC50. The procedure: as §1
Individual cell lines were grown in medium according to supplier instructions and seeded into 96-well plates at a density that ensured logarithmic growth over 72 hours. TEAD inhibitor compounds were administered to cells at a top concentration of 10 μm and subsequently a 10 point 3-fold serial dilution was conducted. After 72 hours, proliferation was quantified using Cell TITERGLO™ (Promega, Inc.) and compared to vehicle control. IC50 and EC50 values were generated using XLFit curve fitting software.

With `CNS(=O)(=O)c1ccc(Nc2cc(C(F)(F)F)ccn2)c(-c2cn(C(C)C)cn2)c1` [I-55, 3-(1-Isopropylimidazol-4-yl)-N-methyl-4-[[4-(trifluoromethyl)-2-pyridyl]amino]benzenesulfonamide], the figures for the EC50 in the test with TEAD and in the test with H226 were 100 to 500 nM and < 100 nM, respectively.
The like results for `CNS(=O)(=O)c1ccc(N[C@H](C)c2ccc(C(F)(F)F)cc2)c(-c2cn(C)cn2)c1` [I-56, N-Methyl-3-(1-methylimidazol-4-yl)-4-[[(1R)-1-[4-(trifluoromethyl)phenyl]ethyl]amino]benzenesulfonamide] were, in that order, 100 to 500 nM and 100 to 500 nM.
The like results for `CNS(=O)(=O)c1ccc(N[C@@H](C)c2ccc(C(F)(F)F)cc2)c(-c2cn(C)cn2)c1` [I-57, N-Methyl-3-(1-methylimidazol-4-yl)-4-[[(1S)-1-[4-(trifluoromethyl)phenyl]ethyl]amino]benzenesulfonamide] were, in that order, > 500 nM and > 500 nM.
The like results for `CNS(=O)(=O)c1ccc(NCc2ccc(OC(F)(F)F)cc2)c(-c2cn(C)cn2)c1` [I-60, N-Methyl-3-(1-methyl-1H-imidazol-4-yl)-4-((4-(trifluoromethoxy)benzyl)amino)benzenesulfonamide] were, in that order, 100 to 500 nM and 100 to 500 nM.
Take `CNS(=O)(=O)c1ccc(NCc2ccccc2)c(-c2nnc(C)o2)c1` [I-61, 4-(Benzylamino)-N-methyl-3-(5-methyl-1,3,4-oxadiazol-2-yl)benzenesulfonamide]: the figures for the EC50 in the test on TEAD and in the test with H226 were > 500 nM and 100 to 500 nM, respectively.
Consider `CNS(=O)(=O)c1ccc(Nc2cc(C(F)(F)F)ccn2)c(-c2nnc(C)o2)c1` [I-62, N-Methyl-3-(5-methyl-1,3,4-oxadiazol-2-yl)-4-[[4-(trifluoromethyl)-2-pyridyl]amino]benzenesulfonamide], for which the EC50 in the test on TEAD and in the test with H226 was 100 to 500 nM in each case.
With `CNS(=O)(=O)c1ccc(N[C@H](C)c2cccc(C(F)(F)F)c2)c(-c2cn(C)cn2)c1` [I-63, N-Methyl-3-(1-methylimidazol-4-yl)-4-[[(1R)-1-[3-(trifluoromethyl)phenyl]ethyl]amino]benzenesulfonamide], the EC50 in the test on TEAD and with H226 was 100 to 500 nM each time.
As for `CNS(=O)(=O)c1ccc(NCc2ccc3c(c2)OCO3)c(-c2cn(C)cn2)c1` [I-64, 4-(1,3-Benzodioxol-5-ylmethylamino)-N-methyl-3-(1-methylimidazol-4-yl)benzenesulfonamide], the EC50 with TEAD and with H226 was 100 to 500 nM throughout.
Consider `CCNS(=O)(=O)c1ccc(Nc2ccc(C(F)(F)F)cn2)c(-c2cn(C)cn2)c1` [I-65, N-ethyl-3-(1-methylimidazol-4-yl)-4-[[5-(trifluoromethyl)-2-pyridyl]amino]benzenesulfonamide], for which the EC50 in the test with TEAD and in the test on H226 was < 100 nM in each case.
On to `CC(C)NS(=O)(=O)c1ccc(Nc2cc(C(F)(F)F)ccn2)c(-c2cn(C)cn2)c1` [I-66, N-Isopropyl-3-(1-methylimidazol-4-yl)-4-[[4-(trifluoromethyl)-2-pyridyl]amino]benzenesulfonamide], for which the EC50 was > 500 nM in the test on TEAD and 100 to 500 nM in the test on H226.
For `CNS(=O)(=O)c1ccc(Nc2ccc(C(F)(F)F)cn2)c(-c2cn(C3CCC3)cn2)c1` [I-67, 3-(1-Cyclobutylimidazol-4-yl)-N-methyl-4-[[5-(trifluoromethyl)-2-pyridyl]amino]benzenesulfonamide], in that order: < 100 nM and < 100 nM.
For the compound `CNS(=O)(=O)c1ccc(NCc2ccc(C(F)(F)F)cc2F)c(-c2cn(C)cn2)c1` [I-68, 4-[[2-Fluoro-4-(trifluoromethyl)phenyl]methylamino]-N-methyl-3-(1-methylimidazol-4-yl)benzenesulfonamide], the EC50 with TEAD and in the test on H226 was < 100 nM each time.
On to `CNS(=O)(=O)c1ccc(NCc2cccc(OC(F)(F)F)c2)c(-c2cn(C)cn2)c1` [I-69, A-Methyl-3-(1-methylimidazol-4-yl)-4-[[3-(trifluoromethoxy)phenyl]methylamino]benzenesulfonamide], for which the EC50 was 100 to 500 nM in the test on TEAD and < 100 nM in the test on H226.
